What follows are compounds tested against T1, KRasG12C (Homo sapiens, UniProt P01116, G12C) (assay: KRasG12C functional assay (HTRF/FRET nucleotide exchange and Raf RBD binding)). Conditions: GDP loaded biotinylated KRasG12C, samples incubated for 4 hrs, FRET readout; single experiment or average of two or more; read-out: KRasG12C functional assay IC50.
T1 construct: biotin (biotinylated); made in house
T1 sequence (P01116 1-188 isoform P01116-2 G12C): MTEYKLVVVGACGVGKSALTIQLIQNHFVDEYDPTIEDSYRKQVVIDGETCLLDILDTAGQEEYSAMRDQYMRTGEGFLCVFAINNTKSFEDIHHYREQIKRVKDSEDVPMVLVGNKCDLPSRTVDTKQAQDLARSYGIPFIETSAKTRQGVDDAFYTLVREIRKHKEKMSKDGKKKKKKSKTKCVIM
Type: biochemical
Protocol: All enzyme and substrate solutions were prepared in assay buffer containing 20 mM HEPES (pH 7.5), 5 mM MgCl2, 150 mM NaCl, and 0.01% Tween 20. […] In a separate mix 20 nM GST-Raf Ras binding domain (GST-Raf RBD, purified in house) and 4 μg/ml anti-GST XL665 antibody (Cisbio) was prepared in assay buffer containing 50 mM Potassium Fluoride and 0.05 mg/ml BSA and equilibrated for 4 hours before adding 0.6 μM Guanosine 5′-[γ-thio]triphosphate (GTPγS, Sigma) and 0.08 μM SOS (purified in house). 5 μl of the GST-RAF RBD mix was then dispensed into each well of the assay plate. […] This is detected simultaneously via the specific binding interaction between active GTPγS KRas^G12C with GST-Raf RBD which brings the europium and XL665 into close proximity enabling an increased FRET signal to be detected on a Pherastar (BMG) plate reader equipped with the HTRF filter module. […] IC50 values were calculated from normalised dose-response response FRET data curve fitted in Genedata screener (Basel, Switzerland).
For C=CC(=O)N1CCN2Cc3c(C#CC)nc(-c4c(O)cccc4Cl)c(Cl)c3OC[C@H]2C1 (single isomer, unassigned) [Example 118], the IC50 was 30 nM. In the case of C=CC(=O)N1CCN2Cc3c(c(Cl)c(-c4c(O)cccc4F)n(C)c3=O)OC[C@H]2C1 (single isomer, unassigned) [Example 66], the IC50 is reported as 21000 nM. C#Cc1nc2c(c(Cl)c1-c1c(O)cccc1Cl)OC[C@@H]1CN(C(=O)C=C)CCN1C2 (single isomer, unassigned) [Example 88] gave an IC50 of 13 nM. C=CC(=O)N1CCN2Cc3cc(F)c(-c4c(O)cccc4C(F)(F)F)c(F)c3OC[C@H]2C1 (single isomer, unassigned) [Example 48] was tested, and the IC50 was 42700 nM. Compound C=CC(=O)N1CCN2Cc3cc(OCCN4CCCCC4)c(-c4c(O)cccc4Cl)c(F)c3OC[C@H]2C1 (single isomer, unassigned) [Example 108] has an IC50 of 64 nM. Compound C=CC(=O)N1CCN2Cc3cc(F)c(-c4c(O)cccc4Cl)c(Cl)c3OC[C@H]2C1 (single isomer, unassigned) [Example 34] has an IC50 of 64900 nM. Compound C=CC(=O)N1CCN2C(=O)c3ccc(-c4c(C)ccc5[nH]ncc45)c(Cl)c3N(C)C[C@H]2C1 (single isomer, unassigned) [Example 37] has an IC50 of 273 nM. In the case of C=CC(=O)N1CCN2Cc3cc(C#CCN(C)C)c(-c4c(O)cccc4Cl)c(F)c3OC[C@H]2C1 (single isomer, unassigned) [Example 102], the IC50 is reported as 28 nM. C=CC(=O)N1CCN2C(=O)c3cc(Cl)c(-c4c(O)cccc4F)c(Cl)c3OC[C@H]2C1 (single isomer, unassigned) [Example 20] gave an IC50 of 43 nM. With C=CC(=O)N1CCN2Cc3cc(C#N)c(-c4c(O)cccc4Cl)c(Cl)c3OC[C@H]2C1 (single isomer, unassigned) [Example 56] the IC50 was 1700 nM. Work on C=CC(=O)N1CCN2Cc3c(-n4cccn4)cc(-c4c(O)cccc4F)c(Cl)c3OC[C@H]2C1 [Example 17, 1-[(12aR)-10-Chloro-9-(2-fluoro-6-hydroxyphenyl)-7-(1H-pyrazol-1-yl)-3,4,12,12a-tetrahydro-6H-pyrazino[2,1-c][1,4]benzoxazepin-2(1H)-yl]prop-2-en-1-one] yielded an IC50 of 361 nM. C=CC(=O)N1CCN2Cc3c(c(Cl)c(-c4c(O)cccc4F)n4cnnc34)OC[C@H]2C1 (single isomer, unassigned) [Example 70] was tested, and the IC50 was 19000 nM. For C=CC(=O)N1CCN2Cc3cc(F)c(-c4c(C)ccc5cc[nH]c(=O)c45)c(Cl)c3OC[C@H]2C1 (single isomer, unassigned) [Example 29], the IC50 was 164 nM. C=CC(=O)N1CCN2Cc3cc(F)c(-c4c(C)ccc5cc[nH]c(=O)c45)c(Cl)c3OC[C@H]2C1 (single isomer, unassigned) [Example 28] showed an IC50 of 17000 nM. Work on C=CC(=O)N1CCN2Cc3c(c(Cl)c(-c4c(O)cccc4F)n4cnnc34)OC[C@H]2C1 (single isomer, unassigned) [Example 71] yielded an IC50 of 539 nM. With C=CC(=O)N1CCN2Cc3c(c(Cl)c(-c4c(O)cccc4F)[nH]c3=O)OC[C@H]2C1 [Example 69, (6aR)-4-Chloro-3-(2-fluoro-6-hydroxyphenyl)-8-(prop-2-enoyl)-2,6,6a,7,8,9,10,12-octahydro-1H-pyrazino[2,1-c]pyrido[3,4-f][1,4]oxazepin-1-one] the IC50 was 618 nM. C=CC(=O)N1CCN2C(=O)c3ccc(-c4c(C)ccc5[nH]ncc45)c(Cl)c3NC[C@H]2C1 (single isomer, unassigned) [Example 33] gave an IC50 of 998 nM. Work on C=CC(=O)N1CCN2Cc3cc(Cl)c(-c4c(C)cccc4O)c(F)c3OC[C@H]2C1 (single isomer, unassigned) [Example 60] yielded an IC50 of 15900 nM. For C=CC(=O)N1CCN2Cc3cc(F)c(-c4c(O)cccc4CC)c(F)c3OC[C@H]2C1 (single isomer, unassigned) [Example 50], the IC50 was 99300 nM. With C=CC(=O)N1CCN2Cc3cc(F)c(-c4c(O)cccc4C(F)F)c(F)c3OC[C@H]2C1 (single isomer, unassigned) [Example 52] the IC50 was > 100000 nM. C=CC(=O)N1CCN2Cc3c(c(Cl)c(-c4c(O)cccc4F)c4cn(C)nc34)OC[C@H]2C1 (single isomer, unassigned) [Example 75] gave an IC50 of 50800 nM. Compound C=CC(=O)N1CCN2Cc3c(c(Cl)c(-c4c(O)cccc4Cl)c4ncn(C)c34)OC[C@H]2C1 (single isomer, unassigned) [Example 82] has an IC50 of 61 nM. With C=CC(=O)N1CCN2Cc3cc(C#N)c(-c4c(O)cccc4F)c(Cl)c3OC[C@H]2C1 (single isomer, unassigned) [Example 23] the IC50 was 105 nM. With C=CC(=O)N1CCN2Cc3cc(F)c(-c4c(C)ccc5[nH]cnc45)c(Cl)c3OC[C@H]2C1 (single isomer, unassigned) [Example 19] the IC50 was 146 nM. C=CC(=O)N1CCN2Cc3cc(F)c(-c4c(O)ccc(F)c4F)c(Cl)c3OC[C@H]2C1 (single isomer, unassigned) [Example 38] showed an IC50 of 40100 nM. Work on C=CC(=O)N1CCN2Cc3cc(OC)c(-c4c(O)cccc4F)c(Cl)c3OC[C@H]2C1 (single isomer, unassigned) [Example 31] yielded an IC50 of 279 nM. C=CC(=O)N1CCN2Cc3c(OCCN(C)C)cc(-c4c(O)cccc4Cl)c(F)c3OC[C@H]2C1 (single isomer, unassigned) [Example 116] showed an IC50 of 53 nM. In the case of C=CC(=O)N1CCN2Cc3cc(F)c(-c4c(C)ccc5[nH]cnc45)c(Cl)c3OC[C@H]2C1 (single isomer, unassigned) [Example 18], the IC50 is reported as 28700 nM. In the case of C=CC(=O)N1CCN2Cc3cc(OC)c(-c4c(O)cccc4F)c(Cl)c3OC[C@H]2C1 (single isomer, unassigned) [Example 30], the IC50 is reported as 90500 nM. For C=CC(=O)N1CCN2Cc3cc(COC)c(-c4c(O)cccc4Cl)c(Cl)c3OC[C@H]2C1 [Example 114, 1-[(12aR)-10-Chloro-9-(2-chloro-6-hydroxyphenyl)-8-(methoxymethyl)-3,4,12,12a-tetrahydro-6H-pyrazino[2,1-c][1,4]benzoxazepin-2(1H)-yl]prop-2-en-1-one], the IC50 was 83 nM. Compound C=CC(=O)N1CCN2C(=O)c3cc(C)c(-c4c(O)cccc4F)c(Cl)c3OC[C@H]2C1 (single isomer, unassigned) [Example 24] has an IC50 of 43800 nM. Compound C=CC(=O)N1CCN2Cc3cc(OCCOC)c(-c4c(O)cccc4Cl)c(Cl)c3OC[C@H]2C1 (single isomer, unassigned) [Example 106] has an IC50 of 43 nM. In the case of C#Cc1c2c(cc(Cl)c1-c1c(C)cccc1O)CN1CCN(C(=O)C=C)C[C@@H]1CO2 (single isomer, unassigned) [Example 63], the IC50 is reported as 120 nM. Compound C=CC(=O)N1CCN2Cc3c(O)c(Cl)c(-c4c(O)cccc4F)c(Cl)c3OC[C@H]2C1 (single isomer, unassigned) [Example 14] has an IC50 of 8190 nM. C=CC(=O)N1CCN2Cc3cc(C#N)c(-c4c(C)cccc4O)c(Cl)c3OC[C@H]2C1 (single isomer, unassigned) [Example 40] gave an IC50 of 4620 nM. C=CC(=O)N1CCN2Cc3cc(F)c(-c4c(O)cccc4Br)c(F)c3OC[C@H]2C1 (single isomer, unassigned) [Example 58] showed an IC50 of 11800 nM. C=CC(=O)N1CCN2Cc3cc(C#N)c(-c4c(O)cccc4F)c(Cl)c3OC[C@H]2C1 (single isomer, unassigned) [Example 22] showed an IC50 of 2580 nM. For C=CC(=O)N1CCN2C(=O)c3c(O)cc(-c4c(O)cccc4F)c(Cl)c3OC[C@H]2C1 [Example 6, (12aR)-10-chloro-9-(2-fluoro-6-hydroxyphenyl)-7-hydroxy-2-(prop-2-enoyl)-1,2,3,4,12,12a-hexahydro-6H-pyrazino[2,1-c][1,4]benzoxazepin-6-one], the IC50 was 103 nM. C=CC(=O)N1CCN2Cc3c(O)c(Cl)c(-c4c(O)cccc4F)c(Cl)c3OC[C@H]2C1 (single isomer, unassigned) [Example 13] gave an IC50 of 66 nM. C=CC(=O)N1CCN2Cc3c(-n4ccnc4)cc(-c4c(O)cccc4F)c(Cl)c3OC[C@H]2C1 [Example 15, 1-[(12aR)-10-Chloro-9-(2-fluoro-6-hydroxyphenyl)-7-(1H-imidazol-1-yl)-3,4,12,12a-tetrahydro-6H-pyrazino[2,1-c][1,4]benzoxazepin-2(1H)-yl]prop-2-en-1-one] was tested, and the IC50 was 1280 nM. With C=CC(=O)N1CCN2Cc3cc(C#N)c(-c4c(O)cccc4Cl)c(Cl)c3OC[C@H]2C1 (single isomer, unassigned) [Example 57] the IC50 was 31 nM. In the case of C=CC(=O)N1CCN2Cc3c(c(Cl)c(-c4c(O)cccc4F)n(C)c3=O)OC[C@H]2C1 (single isomer, unassigned) [Example 67], the IC50 is reported as 810 nM.

Same assay, conditions: KRasG12C functional assay IC50, GDP loaded biotinylated KRasG12C, samples incubated for 4 hrs, FRET readout; single experiment or average of two or more
In the case of C=CC(=O)N1CCN2Cc3cc(F)c(-c4c(C)cccc4O)c(F)c3OC[C@H]2C1 (single isomer, unassigned) [Example 44], the IC50 is reported as > 100000 nM. For C#Cc1cc2c(c(F)c1-c1c(O)cccc1Cl)OC[C@H]1CN(C(=O)C=C)CCN1C2 (single isomer, unassigned) [Example 77], the IC50 was 937 nM. Work on C=CC(=O)N1CCN2Cc3cc(C#N)c(-c4c(O)cccc4Cl)c(F)c3OC[C@H]2C1 (single isomer, unassigned) [Example 55] yielded an IC50 of 16 nM. With C=CC(=O)N1CCN2Cc3cc(OC4CC4)c(-c4c(O)cccc4Cl)c(F)c3OC[C@H]2C1 (single isomer, unassigned) [Example 100] the IC50 was 80 nM. For C=CC(=O)N1CCN2C(=O)c3ccc(-c4c(C)ccc5[nH]ncc45)c(Cl)c3OC[C@H]2C1 (single isomer, unassigned) [Example 7], the IC50 was 82000 nM.
